Earlier results on one molecule are cited in US11766411B2, “Use of cannabinoids in the treatment of epilepsy” (GW Research Limited, priority 2014, dated 2023).

Structures are written as SMILES.

For this data set the following is noted: Consroe et al., 1977; cited from earlier work.

As for `CCCCCc1cc(O)c2c(c1)OC(C)(C)[C@@H]1CCC(C)=C[C@@H]21` [THC, Tetrahydrocannabinol], the effect on convulsions entry is listed as “pro-convulsant”.
